Legend:
[1] = tested on: mice with ethanol induced memory retrieval impairment; test: Step through experiment, mice with ethanol induced memory retrieval impairment; format: in vivo; settings: ethanol model mice, dosage 0.08 mg/kg
[2] = tested on: rats impaired by toxicity; test: Morris water maze, rats impaired by Aβ toxicity; format: in vivo; settings: Morris water maze swimming; Aβ 1-40 rats, four weeks; dosage 0.08 mg/kg
Excerpt: (§1) The search strategy is mostly marginal or random. […]

[3] = tested on: rats impaired by β-amyloid precursor protein (Aβ) toxicity; test: Morris water maze, rats impaired by Aβ toxicity; format: in vivo; settings: Morris water maze swimming; Aβ 1-40 rats, four weeks; dosage 0.08 mg/kg
Excerpt: as §1

[4] = tested on: monoamine neurotransmitters and its metabolites in whole brain; test: Monoamine neurotransmitters and metabolites in whole brain, rats with Aβ toxicity injury; format: in vivo; settings: dosage 0.08 mg/kg
Excerpt: (§2) Acta Pharmacol Sin. 2004; 25: 1118˜23.

[5] = tested on: 5-HT and 5-HIAA in the whole brain; test: Monoamine neurotransmitters in whole brain of APP transgenic mice; format: in vivo; settings: positive Huperzine A group
Excerpt: as §2

[6] = tested on: pyramidal cells of hippocampus; test: HE staining, histomorphology of rats with D-galactose induced brain aging; format: in vivo; settings: compared with the model group
Description: The experiment is performed as per Section 2, Chapter 7 of Pathological Tissue Sectioning and Staining Technology (Gong Zhi-jin et al.).
The pyramidal cells of hippocampus of rats in the blank group are tight in alignment, obvious with the upper and lower cell lines and rich in number of cells; the nuclear membrane are clear with distinct nucleolus. The pyramidal cells of hippocampus of rats in the model group is loosening in the alignment, oblique in the cellular structure, swelling in the cell body and irregular in the upper and lower cell lines; Some cells have nucleus pyknosis and deep staining.

hippocampus nerve cells [7] = test: Ultrastructure of hippocampus nerve cells, rats with Aβ toxicity impairment; format: in vivo; settings: compared with the model group
Excerpt: There are margination and pyknosis of chromosome of nucleus of hippocampus nerve cells in rats of the model group; the volume of cell is lessened and the cytoplasm is concentrated; the mitochondria are mildly swelling in a few cells; the cell organelle such as the rough endoplasmic reticulum and ribosome are generally normal; and the presynaptic and postsynaptic membranes are not clear. The synaptic space disappears.

ACh in brain = test: Content of ACh in brain of 2VO rats; settings: 3 months after 2VO, two months after drug administered, dosage 0.06 mg/kg
Ach in whole brain = test: Content of ACh in whole brain, rats with Aβ toxicity injury; settings: Aβ1-40 rats, four weeks after drug administered, dosage 0.08 mg/kg
MDA = test: Content of MDA of whole brain, rats with natural aging cognition impairment; settings: 12 weeks after drug administered, dosage 0.08 mg/kg
Description: (§3) The detection is performed as per the instruction of the reagent kits.

Na+-K+-ATP enzyme = settings: whole brain, Aβ1-40 rats; four weeks after drug administered; dosage 0.08 mg/kg
Description: as §3

SOD = test: Activity of SOD of whole brain, rats with natural aging cognition impairment; settings: 12 weeks after drug administered, dosage 0.08 mg/kg
Description: as §3

[8] = tested on: mice with scopolamine hydrobromide induced memory impairment; test: Step down experiment, mice with scopolamine hydrobromide induced memory impairment; settings: scopolamine model mice, dosage 0.08 mg/kg
Description: 1.1.2 The experiment is performed as per Nervous System Drugs Section 5 in Methodology of Pharmaceutical Experiment (XU Shu-yun, et al.).

hippocampus nerve cells [9] = test: Ultrastructure of hippocampus nerve cells, rats with natural aging cognition impairment; settings: contrary to the model group
2VO rats = test: Morris water maze, VD rats with bilateral common carotid artery permanent ligation (2VO); settings: dosage 0.06 mg/kg
[10] = 15 days after drug administered

SMILES: C/C=C1\[C@H]2C=C(C)C[C@]1(N)c1ccc(=O)[nH]c1C2 [Huperzine A]
- Latency [1, 10]: 214.1 ± 127.8 s
- Number of Mistakes ([1]; in 5 minutes, 15 days): 1.0 ± 1.3
- Length of route [2]: 436.7 ± 284.4
- Length of time [3]: 16.3 ± 10.6
- 5-HIAA [4]: 27.3 ± 3.1 µg/L
- 5-HT [4]: 41.7 ± 5.9 µg/L
- DA [4]: 136.2 ± 8.5 µg/L
- DOPAC [4]: 13.4 ± 1.3 µg/L
- HVA [4]: 15.4 ± 9.4 µg/L
- NE [4]: 75.9 ± 11.3 µg/L
- 5-HT and 5-HIAA in the whole brain [5]: decrease to different degrees
- histomorphology of pyramidal cells of hippocampus (HE staining) [6]: in order of alignment with clearer contour of cells
- ultrastructure of hippocampus nerve cells (hippocampus nerve cells [7]): better morphology and structure, clearer cell membrane and pre- and post-synaptic membranes
- Content of ACh (ACh in brain): 221.4 ± 41.9 µg/L
- Content of ACh (Ach in whole brain): 180.0 ± 23.5 µg/L
- Content of MDA (MDA): 3.50 ± 0.43 nmol/mgProt
- Activity of Na+—K+-ATP (Na+-K+-ATP enzyme): 0.207 ± 0.025 μmoLPi/mgProt/h
- Activity of SOD (SOD): 43.68 ± 2.55 NU/mgProt
- Latency [8, 10]: 271.8 ± 54.6 s
- Number of Error ([8]; in 5 minutes, 15 days): 0.6 ± 0.9
- ultrastructure of hippocampus nerve cells (hippocampus nerve cells [9]): better morphology and structure and clearer cell membrane
- Time of passing through maze, 1 month after ligation (2VO rats; 1 month after ligation): 61.3 ± 25.2 s
- Time of passing through maze, 2 months after ligation (2VO rats; 2 months after ligation (one month after drug administered)): 29.1 ± 18.5 s
- Time of passing through maze, 3 months after ligation (2VO rats; 3 months after ligation (two months after drug administered)): 10.8 ± 5.6 s

Reference: patent US8158169B2, “Chinese medicine composition and preparation method and use thereof” (priority 2006, dated 2012)
